The values that follow come from article PMC3871185 (ACS medicinal chemistry letters, 2013).

Converted amounts (≈) assume the structure as drawn. “Also recorded” adds a separate entry of the source.

In test [1] the target is BpMetAP1 (Burkholderia pseudomallei, UniProt Q63T11).
For test [2], the system named is Burkholderia thailandensis.
Test [3] has as its system clinical B. pseudomallei isolates. The conditions noted are these: cited from earlier work.
The subject of test [4] is hMetAP1. The conditions noted are these: read-out: hMetAP1 IC50; cited from earlier work.
The subject of test [5] is B. pseudomallei. Particulars: cited from earlier work.
Test [6] concerns Burkholderia thailandensis. The conditions noted are these: cited from earlier work.
Test [7] concerns hMetAP2. The conditions noted are these: cited from earlier work; for IC50: read-out: hMetAP2 IC50.
Test [8] deals with Burkholderia thailandensis. Nature of the test: microbe, parasite or virus in culture. The conditions noted are these: read-out: minimum inhibitory concentration (MIC).
In test [9] the test system is B. pseudomallei strain Bp340. Format: cell-based, Burkholderia pseudomallei.
Test [10] has as its system B. pseudomallei 1026b. Format: cell-based, Burkholderia pseudomallei.

A word on the IC50: it is the concentration that inhibits the measured activity by half.

BpMetAP1, sequence (Q63T11 1-271): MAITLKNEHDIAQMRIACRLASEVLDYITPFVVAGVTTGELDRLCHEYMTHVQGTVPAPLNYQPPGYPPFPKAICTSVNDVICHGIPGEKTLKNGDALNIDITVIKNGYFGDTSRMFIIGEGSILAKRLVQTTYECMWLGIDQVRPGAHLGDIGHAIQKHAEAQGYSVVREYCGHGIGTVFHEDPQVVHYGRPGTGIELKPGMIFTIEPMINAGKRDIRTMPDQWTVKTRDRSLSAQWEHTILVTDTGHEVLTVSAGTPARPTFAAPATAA

On to `O=[N+]([O-])c1cc(CN2CCSCC2)c(O)c2ncccc12` [compound 14], for which the “BpMetAP1 inhibition potency (in words)” value in test [1] was “decreased potency”.
Regarding `O=C(O)c1ccc(-c2ccccc2Cl)o1` [compound 22, reference compound], the “growth inhibition of B. thailandensis (in words)” value (shortened to “growth inhibition … (in words)”) in [2] was “essentially no ability to inhibit bacterial growth”.
For the molecule `Cc1ccc(CSc2nnc(N)[nH]2)cc1` [compound 16], the “BpMetAP1 inhibition potency (in words)” value in test [1] is listed as “low micromolar range”.
In the case of `CC(C)(O/N=C(\C(=O)N[C@@H]1C(=O)N2C(C(=O)[O-])=C(C[n+]3ccccc3)CS[C@H]12)c1csc(N)n1)C(=O)O` [ceftazidime], the MIC in test [3] was 1 to 6 µg/mL.
As for `CN(C)Cc1cc([N+](=O)[O-])c2cccnc2c1O` [compound 11], the “growth inhibition … (in words)” value in [2] is recorded as “potent growth inhibitors; also recorded: inhibition of cell growth”.
`Oc1c(CN2CCSCC2)cc(Cl)c2cccnc12` [compound 7]: the “growth inhibition … (in words)” value in test [2] is “inhibited cell growth”.
On the same count and under the same terms, the entry for `O=C(O)c1ccc(-c2cc(Cl)ccc2Cl)o1` [compound 23, reference compound] is “essentially no ability to inhibit bacterial growth”.
On the same count and under the same terms, the entry for `CN1CCN(Cc2cc([N+](=O)[O-])c3cccnc3c2O)CC1` [compound 15] is “potent growth inhibitors; also recorded: inhibition of cell growth; also recorded: nearly complete cell growth inhibition”.
Consider `Oc1cccc2cccnc12` [compound 3, reference compound], for which the IC50 in [4] is over 15 µM. Further, in test [2], the “growth inhibition … (in words)” value is given as “inhibited cell growth”.
As to `NC[C@H]1O[C@H](O[C@H]2[C@H](O)[C@@H](O[C@H]3O[C@H](CO)[C@@H](O)[C@H](N)[C@H]3O)[C@H](N)C[C@@H]2N)[C@H](O)[C@@H](O)[C@@H]1O` [Km, kanamycin], the “killing of B. pseudomallei” value in test [5] is recorded as “complete killing”. Further, the “killing of B. thailandensis” value in test [6] is recorded as “complete killing”.
Take `O=[N+]([O-])c1cc(CN2CCOCC2)c(O)c2ncccc12` [compound 13]: the “BpMetAP1 inhibition potency (in words)” value in [1] is reported as “decreased potency”.
For the molecule `O=S(=O)(O)c1ccc(O)c2ncccc12` [compound 1], the half-maximal inhibitory concentration (IC50) in test [4] and in test [7] was over 15 µM in each case.
Turning to `Cc1ccc2cccc(O)c2n1` [compound 2, reference compound], the half-inhibitory concentration (IC50) in test [4] and in test [7] was over 15 µM in each case. Besides, the “BpMetAP1 inhibition potency (in words)” value in test [1] was “inactive”. Moreover, in [2], the “growth inhibition … (in words)” value is reported as “inhibited cell growth”.
Take `Nc1nnc(SCc2ccc(Cl)cc2Cl)[nH]1` [compound 18]: the “BpMetAP1 inhibition potency (in words)” value in test [1] is given as “low micromolar range”.
Turning to `O=[N+]([O-])c1cc(CN2CCCC2)c(O)c2ncccc12` [compound 12], the “growth inhibition … (in words)” value in test [2] is listed as “potent growth inhibitors; also recorded: inhibition of cell growth”.
As for `O=[N+]([O-])c1ccc(O)c2ncccc12` [compound 9, 5-nitro-8-hydroxyquinoline], the MIC in test [8] is about 6 µg/mL (≈ 31.6 µM). The “growth inhibition of B. pseudomallei Bp340” value in test [9] is recorded as “complete growth inhibition”. Moreover, the half-maximal inhibitory concentration (IC50) in test [4] was over 15 µM. The “inhibition of B. pseudomallei 1026b” value in [10] is “no difference in inhibition compared to Bp340”. For the same molecule, the “activity against human MetAP2 in vitro” value in [7] is “nanomolar range”. Moreover, the “BpMetAP1 inhibition potency (in words)” value in [1] is reported as “Met-AP inhibition”. In addition, the “growth inhibition … (in words)” value in test [2] is on record as “potent growth inhibitors; also recorded: inhibition of cell growth”.
Consider `Nc1nnc(SCc2ccc(F)cc2)[nH]1` [compound 17], for which the “BpMetAP1 inhibition potency (in words)” value in [1] is recorded as “low micromolar range”.
For `O=[N+]([O-])c1cc(CN2CCCCC2)c(O)c2ncccc12` [compound 10], the “BpMetAP1 inhibition potency (in words)” value in [1] is “decreased potency”. The “growth inhibition … (in words)” value in [2] was “inactive”.
For `Oc1c(CN2CCCCC2)cc(Cl)c2cccnc12` [compound 5], in [1], the “BpMetAP1 inhibition potency (in words)” value is “Met-AP inhibition”.
In the case of `O=C(O)c1cc(Br)ccc1NS(=O)(=O)c1ccc(Cl)cc1` [compound 25], in test [2], the “growth inhibition … (in words)” value was “nor the sulfonamide (24 and 25) derivatives demonstrated significant growth inhibition”.
